According to patent US20210255193A1, “LYSINE REACTIVE PROBES AND USES THEREOF” (The Scripps Research Institute, priority 2017, published 2021):

What was measured:
Assay in all cases: competitive isoTOP-ABPP
Assay type in all cases: binding
[1] = biological target: T1, NT5DC1 5-nucleotidase domain-containing protein 1 (Homo sapiens, UniProt Q5TFE4); conditions: for isoTOP-ABPP ratio (R) at liganded lysine Q5TFE4_K123 / R value (DMSO/fragment) for probe 1 labeling / isoTOP-ABPP reactivity ratio at lysine Q5TFE4_K123: 50 uM, in vitro; for isoTOP-ABPP ratio (R) at liganded lysine Q5TFE4_K123: sol, 231; for R value (DMSO/fragment) for probe 1 labeling: Q5TFE4_K123; for R value (DMSO/fragment) for probe 1 labeling / isoTOP-ABPP reactivity ratio at lysine Q5TFE4_K123: 231 sol
T1 construct: isoTOP-ABPP experiments performed in cell lysates (in vitro); endogenous in cells; host or cells: soluble proteome of human cancer cell lines (MDA-MB-231; Ramos and Jurkat also prepared)
T1 sequence (Q5TFE4 1-455): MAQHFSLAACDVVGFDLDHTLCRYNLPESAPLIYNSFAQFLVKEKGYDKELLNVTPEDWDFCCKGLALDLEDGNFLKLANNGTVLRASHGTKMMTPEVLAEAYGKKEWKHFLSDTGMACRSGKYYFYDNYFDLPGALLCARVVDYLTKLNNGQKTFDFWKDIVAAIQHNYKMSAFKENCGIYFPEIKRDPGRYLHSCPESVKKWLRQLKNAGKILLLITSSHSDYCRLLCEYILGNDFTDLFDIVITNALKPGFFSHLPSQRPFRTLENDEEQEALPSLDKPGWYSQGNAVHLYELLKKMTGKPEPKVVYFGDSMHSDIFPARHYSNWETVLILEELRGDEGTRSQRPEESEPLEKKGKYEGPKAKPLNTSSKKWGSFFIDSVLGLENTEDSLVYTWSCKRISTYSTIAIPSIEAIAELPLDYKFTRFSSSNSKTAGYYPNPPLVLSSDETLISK
In short: (§1)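 Lysate + fragment (50 μM activated ester / 100 μM guanidinylating agent) or DMSO → 0.1 mM STP-alkyne, 1 h, RT → CuAAC to TEV tags (compound light, DMSO heavy) → LC-MS. R = heavy/light MS1 area; liganded lysine if R≥4.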

[2] = biological target: T2, DNMT1 DNA (cytosine-5)-methyltransferase 1 (Homo sapiens, UniProt P26358); conditions: for isoTOP-ABPP ratio (R) at liganded lysine P26358_K45 / isoTOP-ABPP reactivity ratio at lysine P26358_K45 / R value (DMSO/fragment) for probe 1 labeling: 50 uM, in vitro; for isoTOP-ABPP ratio (R) at liganded lysine P26358_K45: sol, 231; for isoTOP-ABPP reactivity ratio at lysine P26358_K45 / R value (DMSO/fragment) for probe 1 labeling: 231 sol; for R value (DMSO/fragment) for probe 1 labeling: P26358_K45
T2 construct: isoTOP-ABPP experiments performed in cell lysates (in vitro); endogenous in cells; host or cells: soluble proteome of human cancer cell lines (MDA-MB-231; Ramos and Jurkat also prepared)
T2 sequence (P26358 whole entry, the tested form may be a part): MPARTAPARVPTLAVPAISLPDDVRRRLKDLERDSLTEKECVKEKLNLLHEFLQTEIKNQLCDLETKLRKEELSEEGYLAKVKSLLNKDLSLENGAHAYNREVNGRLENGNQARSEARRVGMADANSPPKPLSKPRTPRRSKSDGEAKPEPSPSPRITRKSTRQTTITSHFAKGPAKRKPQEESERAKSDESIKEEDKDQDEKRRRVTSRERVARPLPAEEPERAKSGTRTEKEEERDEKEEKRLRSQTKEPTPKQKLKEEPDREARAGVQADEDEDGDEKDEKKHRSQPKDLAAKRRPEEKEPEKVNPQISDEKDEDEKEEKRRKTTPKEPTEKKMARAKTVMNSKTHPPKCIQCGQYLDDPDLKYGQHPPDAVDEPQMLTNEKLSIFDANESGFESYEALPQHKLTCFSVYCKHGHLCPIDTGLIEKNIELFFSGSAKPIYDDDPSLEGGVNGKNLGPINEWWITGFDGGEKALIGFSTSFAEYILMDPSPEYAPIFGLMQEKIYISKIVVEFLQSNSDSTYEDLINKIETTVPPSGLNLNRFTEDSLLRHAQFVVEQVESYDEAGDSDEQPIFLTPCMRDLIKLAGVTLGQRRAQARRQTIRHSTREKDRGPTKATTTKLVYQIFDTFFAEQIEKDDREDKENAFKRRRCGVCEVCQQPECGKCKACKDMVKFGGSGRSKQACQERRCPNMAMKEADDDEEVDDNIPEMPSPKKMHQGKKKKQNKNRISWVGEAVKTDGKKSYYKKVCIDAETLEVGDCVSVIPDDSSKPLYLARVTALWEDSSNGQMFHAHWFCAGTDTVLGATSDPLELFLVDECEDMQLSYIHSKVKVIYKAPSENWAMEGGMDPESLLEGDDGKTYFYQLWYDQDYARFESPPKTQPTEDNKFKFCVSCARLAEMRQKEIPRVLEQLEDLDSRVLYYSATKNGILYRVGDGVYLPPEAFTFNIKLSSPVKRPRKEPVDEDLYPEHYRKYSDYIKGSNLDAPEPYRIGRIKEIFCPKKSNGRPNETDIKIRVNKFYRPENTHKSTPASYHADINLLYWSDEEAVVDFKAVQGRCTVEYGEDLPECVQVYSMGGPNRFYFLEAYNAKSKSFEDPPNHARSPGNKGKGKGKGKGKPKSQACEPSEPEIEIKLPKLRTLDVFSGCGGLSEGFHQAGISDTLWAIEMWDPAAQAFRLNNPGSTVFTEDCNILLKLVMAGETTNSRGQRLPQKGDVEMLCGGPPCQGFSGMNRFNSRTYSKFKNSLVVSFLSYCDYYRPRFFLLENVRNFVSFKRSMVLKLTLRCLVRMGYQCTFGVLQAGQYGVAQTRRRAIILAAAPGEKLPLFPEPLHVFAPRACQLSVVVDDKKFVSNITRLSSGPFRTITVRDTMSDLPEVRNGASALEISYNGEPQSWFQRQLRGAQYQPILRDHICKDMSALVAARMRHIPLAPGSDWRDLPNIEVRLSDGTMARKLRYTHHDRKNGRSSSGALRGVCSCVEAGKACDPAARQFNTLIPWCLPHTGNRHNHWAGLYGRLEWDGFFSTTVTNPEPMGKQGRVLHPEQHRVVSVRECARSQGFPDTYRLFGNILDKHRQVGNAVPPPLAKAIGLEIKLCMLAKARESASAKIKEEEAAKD
In short: as §1

[3] = biological target: T3, SOD2 Superoxide dismutase (Homo sapiens, UniProt P04179); conditions: for isoTOP-ABPP ratio (R) at liganded lysine P04179_K68 / R value (DMSO/fragment) for probe 1 labeling / isoTOP-ABPP reactivity ratio at lysine P04179_K68: 50 uM, in vitro; for isoTOP-ABPP ratio (R) at liganded lysine P04179_K68: sol, 231; for R value (DMSO/fragment) for probe 1 labeling: P04179_K68; for R value (DMSO/fragment) for probe 1 labeling / isoTOP-ABPP reactivity ratio at lysine P04179_K68: 231 sol
T3 construct: isoTOP-ABPP experiments performed in cell lysates (in vitro); endogenous in cells; host or cells: MDA-MB-231 soluble lysate
T3 sequence (P04179 25-222): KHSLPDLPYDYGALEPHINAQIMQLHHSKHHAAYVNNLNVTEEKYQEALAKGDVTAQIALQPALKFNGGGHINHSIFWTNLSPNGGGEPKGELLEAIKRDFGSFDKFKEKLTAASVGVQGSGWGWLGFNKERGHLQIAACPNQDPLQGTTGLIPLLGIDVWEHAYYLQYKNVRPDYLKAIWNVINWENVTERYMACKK
In short: as §1

[4] = biological target: T4, SLC25A5 ADP/ATP translocase 2 (Homo sapiens, UniProt P05141); conditions: for isoTOP-ABPP ratio (R) at liganded lysine P05141_K23: sol, 231
T4 construct: isoTOP-ABPP experiments performed in cell lysates (in vitro); endogenous in cells; host or cells: MDA-MB-231 soluble lysate
T4 sequence (P05141 1-298): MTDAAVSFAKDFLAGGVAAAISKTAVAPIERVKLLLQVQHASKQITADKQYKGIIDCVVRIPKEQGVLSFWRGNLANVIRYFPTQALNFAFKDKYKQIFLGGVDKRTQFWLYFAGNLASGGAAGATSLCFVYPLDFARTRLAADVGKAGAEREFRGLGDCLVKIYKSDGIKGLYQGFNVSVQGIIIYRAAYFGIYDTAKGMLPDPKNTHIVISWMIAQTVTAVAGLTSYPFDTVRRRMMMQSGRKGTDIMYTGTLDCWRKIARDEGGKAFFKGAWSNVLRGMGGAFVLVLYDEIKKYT
In short: as §1

Compound: O=C(CCc1coc2cc(F)ccc2c1=O)Oc1ccc([N+](=O)[O-])cc1[N+](=O)[O-] [fragment 36, 2,4-Dinitrophenyl 3-(7-fluoro-4-oxo-4H-chromen-3-yl)propanoate]
- isoTOP-ABPP ratio (R) at liganded lysine Q5TFE4_K123 [1]: 20.0
- isoTOP-ABPP ratio (R) at liganded lysine P26358_K45 [2]: 0.8
- isoTOP-ABPP ratio (R) at liganded lysine P04179_K68 [3]: 2.1
- isoTOP-ABPP ratio (R) at liganded lysine P05141_K23 ([4]; 50 uM, in vitro): 1.1

Compound: O=C(Oc1ccc([N+](=O)[O-])cc1[N+](=O)[O-])C(c1ccccc1)(c1ccccc1)c1ccccc1 [fragment 42, 2,4-Dinitrophenyl 2,2,2-triphenylacetate]
- isoTOP-ABPP ratio (R) at liganded lysine Q5TFE4_K123 [1]: 0.6
- isoTOP-ABPP ratio (R) at liganded lysine P05141_K23 ([4]; 50 uM, in vitro): 1.1

Compound: O=C(ON1C(=O)CCC1=O)c1cc(C(F)(F)F)cc(C(F)(F)F)c1 [fragment 46, 3,5-Bis(trifluoromethyl)benzoic acid NHS ester]
- isoTOP-ABPP ratio, lysine Q5TFE4_K123 ([1]; 50 uM_231_sol_in vitro): 20.0
- isoTOP-ABPP ratio, lysine P26358_K45 ([2]; 50 uM_231_sol_in vitro): 2.4
- isoTOP-ABPP ratio, lysine P04179_K68 ([3]; 50 uM_231_sol_in vitro): 0.9
- isoTOP-ABPP ratio, lysine P05141_K23 ([4]; 50 uM_231_sol_in vitro): 0.9

Compound: O=C(CCc1cn(-c2ccccc2)nc1-c1ccccc1)Oc1c(F)c(F)c(F)c(F)c1F [fragment 19, Pentafluorophenyl 3-(1,3-diphenyl-1H-pyrazol-4-yl)propanoate]
- R value (DMSO/fragment) for probe 1 labeling [1]: 20.0

Compound: O=C(CCc1cn(-c2ccccc2)nc1-c1ccccc1)Oc1ccc([N+](=O)[O-])cc1[N+](=O)[O-] [fragment 29, 2,4-Dinitrophenyl 3-(1,3-diphenyl-1H-pyrazol-4-yl)propanoate]
- isoTOP-ABPP reactivity ratio at lysine Q5TFE4_K123 [1]: 1.2
- isoTOP-ABPP reactivity ratio at lysine P26358_K45 [2]: 0.9
- isoTOP-ABPP reactivity ratio at lysine P05141_K23 ([4]; 50 uM, 231 sol, in vitro): 1.5

Compound: CC(C)(C)OC(=O)N=C(NC(=O)OC(C)(C)C)n1cccn1 [fragment 50, reference compound]
- isoTOP-ABPP ratio, lysine Q5TFE4_K123 ([1]; 100 uM_231_sol_in vitro): 1.1
- isoTOP-ABPP ratio, lysine P05141_K23 ([4]; 100 uM_231_sol_in vitro): 12.6

Compound: O=C(Oc1ccc([N+](=O)[O-])cc1[N+](=O)[O-])c1ccc(-c2ccccc2)cc1 [fragment 37, 2,4-Dinitrophenyl [1,1′-biphenyl]-4-carboxylate]
- isoTOP-ABPP ratio (R) at liganded lysine Q5TFE4_K123 [1]: 1.8
- isoTOP-ABPP ratio (R) at liganded lysine P26358_K45 [2]: 0.7
- isoTOP-ABPP ratio (R) at liganded lysine P04179_K68 [3]: 1.7
- isoTOP-ABPP ratio (R) at liganded lysine P05141_K23 ([4]; 50 uM, in vitro): 1.2

Compound: O=C(CCc1ccc2c(c1)OCO2)Oc1ccc([N+](=O)[O-])cc1[N+](=O)[O-] [fragment 45, 2,4-Dinitrophenyl 3-(benzo[d][1,3]dioxol-5-yl)propanoate]
- isoTOP-ABPP ratio, lysine Q5TFE4_K123 ([1]; 50 uM_231_sol_in vitro): 2.1
- isoTOP-ABPP ratio, lysine P26358_K45 ([2]; 50 uM_231_sol_in vitro): 1.0
- isoTOP-ABPP ratio, lysine P04179_K68 ([3]; 50 uM_231_sol_in vitro): 0.9
- isoTOP-ABPP ratio, lysine P05141_K23 ([4]; 50 uM_231_sol_in vitro): 1.2

Compound: COC(=O)NC(=NC(=O)OCC1c2ccccc2-c2ccccc21)n1cccn1 [fragment 49, N-Methoxycarbonyl-N′-9-fluorenylmethoxycarbonyl-pyrazole-1-carboxamidine]
- isoTOP-ABPP ratio, lysine Q5TFE4_K123 ([1]; 100 uM_231_sol_in vitro): 1.3
- isoTOP-ABPP ratio, lysine P26358_K45 ([2]; 100 uM_231_sol_in vitro): 1.3
- isoTOP-ABPP ratio, lysine P04179_K68 ([3]; 100 uM_231_sol_in vitro): 3.3

Compound: O=C(Oc1c(F)c(F)c(F)c(F)c1F)C(c1ccccc1)c1ccccc1 [fragment 20, Pentafluorophenyl 2,2-diphenylacetate]
- R value (DMSO/fragment) for probe 1 labeling [1]: 1.0
- R value (DMSO/fragment) for probe 1 labeling [2]: 7.3
- R value (DMSO/fragment) for probe 1 labeling [3]: 1.0

Compound: CCn1cc(C(=O)Oc2c(F)c(F)c(F)c(F)c2F)c(=O)c2ccc(C)nc21 [fragment 28, Pentafluorophenyl 1-ethyl-7-methyl-4-oxo-1,4-dihydro-1,8-naphthyridine-3-carboxylate]
- isoTOP-ABPP reactivity ratio at lysine Q5TFE4_K123 [1]: 1.2
- isoTOP-ABPP reactivity ratio at lysine P04179_K68 [3]: 0.8
- isoTOP-ABPP reactivity ratio at lysine P05141_K23 ([4]; 50 uM, 231 sol, in vitro): 1.0

Compound: O=C(Oc1c(F)c(F)c(F)c(F)c1F)c1cc(C(F)(F)F)cc(C(F)(F)F)c1 [fragment 21, Pentafluorophenyl 3,5-bis(trifluoromethyl)benzoate]
- R value (DMSO/fragment) for probe 1 labeling [1]: 1.2
- R value (DMSO/fragment) for probe 1 labeling [2]: 1.4
- R value (DMSO/fragment) for probe 1 labeling [3]: 1.2
- R value (DMSO/fragment) for probe 1 labeling ([4]; P05141_K23, 50 uM, 231 sol, in vitro): 1.7

Compound: O=C(Oc1c(F)c(F)c(F)c(F)c1F)C1CCN(C(=O)OCc2ccccc2)CC1 [fragment 24, 1-Benzyl 4-(pentafluorophenyl) piperidine-1,4-dicarboxylate]
- isoTOP-ABPP reactivity ratio at lysine Q5TFE4_K123 [1]: 1.1

Compound: Cn1cc(CC(=O)Oc2ccc([N+](=O)[O-])cc2[N+](=O)[O-])c2ccccc21 [fragment 32, 2,4-Dinitrophenyl 2-(1-methyl-1H-indol-3-yl)acetate]
- isoTOP-ABPP reactivity ratio at lysine P26358_K45 [2]: 1.0
- isoTOP-ABPP reactivity ratio at lysine P04179_K68 [3]: 1.1
- isoTOP-ABPP reactivity ratio at lysine P05141_K23 ([4]; 50 uM, 231 sol, in vitro): 1.8

Compound: COc1cc(CCC(=O)Oc2c(F)c(F)c(F)c(F)c2F)cc(OC)c1OC [fragment 23, Pentafluorophenyl 3-(3,4,5-trimethoxyphenyl)propanoate]
- R value (DMSO/fragment) for probe 1 labeling [1]: 1.5

Compound: O=C(Oc1ccc([N+](=O)[O-])cc1[N+](=O)[O-])c1ccc(Oc2ccccc2)cc1 [fragment 39, 2,4-Dinitrophenyl 4-phenoxybenzoate]
- isoTOP-ABPP ratio (R) at liganded lysine P26358_K45 [2]: 1.0
- isoTOP-ABPP ratio (R) at liganded lysine P04179_K68 [3]: 1.0
- isoTOP-ABPP ratio (R) at liganded lysine P05141_K23 ([4]; 50 uM, in vitro): 0.9
